Assay results as given in ChEMBL document CHEMBL1147551, “Synthesis and inhibition of Src kinase activity by 7-ethenyl and 7-ethynyl-4-anilino-3-quinolinecarbonitriles” (Bioorg Med Chem Lett, 2004).

Tests used:
Rattus norvegicus [1] = organism: Rattus norvegicus; experiment: Inhibitory activity against Src-dependent cell proliferation assay using rat fibroblasts
[2] = target: Proto-oncogene tyrosine-protein kinase Src (Homo sapiens, UniProt P12931); experiment: Enzyme inhibitory activity against recombinant human Src protein tyrosine kinase
Rattus norvegicus [3] = organism: Rattus norvegicus; experiment: Inhibitory activity against Src-dependent cell proliferation assay, using rat fibroblasts; format: functional

Sequence of Proto-oncogene tyrosine-protein kinase Src (P12931 2-536 limits assumed): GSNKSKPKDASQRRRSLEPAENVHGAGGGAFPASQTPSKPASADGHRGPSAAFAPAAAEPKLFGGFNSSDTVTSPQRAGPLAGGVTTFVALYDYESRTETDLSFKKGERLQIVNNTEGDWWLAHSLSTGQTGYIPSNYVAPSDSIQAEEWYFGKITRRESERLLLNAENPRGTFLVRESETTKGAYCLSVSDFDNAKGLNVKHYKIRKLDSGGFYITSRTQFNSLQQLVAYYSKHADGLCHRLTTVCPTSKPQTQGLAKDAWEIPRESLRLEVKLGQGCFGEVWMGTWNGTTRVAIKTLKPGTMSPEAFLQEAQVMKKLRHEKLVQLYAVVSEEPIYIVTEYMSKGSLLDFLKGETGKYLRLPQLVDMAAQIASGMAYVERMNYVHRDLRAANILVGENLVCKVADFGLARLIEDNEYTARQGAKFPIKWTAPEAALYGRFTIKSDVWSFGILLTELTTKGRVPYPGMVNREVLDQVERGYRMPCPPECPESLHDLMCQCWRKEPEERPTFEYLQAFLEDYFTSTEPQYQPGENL

| IC50 [2] [nM] | Compound | IC50 (Rattus norvegicus [1]) [nM] | Inhibition (Rattus norvegicus [3]) [%] |
| --- | --- | --- | --- |
| 57 | COc1cc(Nc2c(C#N)cnc3cc(C#Cc4ccccc4)c(OC)cc23)c(Cl)cc1Cl | 3000 | – |
| 530 | COc1cc(Nc2c(C#N)cnc3cc(C#Cc4ccccn4)ccc23)c(Cl)cc1Cl | > 10000 | – |
| 1000 | N#Cc1cnc2cc(/C=C/c3ccncc3)ccc2c1NCc1ccc(Cl)cc1Cl | > 10000 | – |
| – | COc1cc(Nc2c(C#N)cnc3cc(C#Cc4cccnc4)ccc23)c(Cl)cc1Cl | 650 | – |
| 420 | COc1cc(Nc2c(C#N)cnc3cc(C#Cc4ccc(-c5ccccc5)cc4)ccc23)c(Cl)cc1Cl | > 10000 | – |
| 8.4 | COc1cc(Nc2c(C#N)cnc3cc(/C=C/c4cccnc4)c(OC)cc23)c(Cl)cc1Cl | 140 | – |
| 320 | COc1cc(Nc2c(C#N)cnc3cc(/C=C/c4ccc5ccccc5c4)ccc23)c(Cl)cc1Cl | > 10000 | – |
| – | COc1cc(Nc2c(C#N)cnc3cc(C#Cc4cccnc4)c(OC)cc23)c(Cl)cc1Cl | 270 | – |
| – | COc1cc(Nc2c(C#N)cnc3cc(CCc4ccncc4)ccc23)c(Cl)cc1Cl | > 10000 | – |
| – | COc1cc(Nc2c(C#N)cnc3cc(/C=C/c4ccncc4)ccc23)c(Cl)cc1Cl | 230 | – |
| – | N#Cc1cnc2cc(/C=C/c3ccncc3)ccc2c1Nc1ccc(Cl)cc1Cl | 1200 | – |
| 2300 | COc1cc(Nc2c(C#N)cnc3cc(/C=C/c4ccc(-c5ccccc5)cc4)ccc23)c(Cl)cc1Cl | > 10000 | – |
| 180 | COc1cc(Nc2c(C#N)cnc3cc(/C=C/c4ccccc4)ccc23)c(Cl)cc1Cl | 2700 | – |
| – | COc1cc(Nc2c(C#N)cnc3cc(/C=C/c4ccncc4)c(OC)cc23)c(Cl)cc1Cl | 80 | – |
| 1600 | O=C(O)c1cnc2cc(/C=C/c3ccncc3)ccc2c1Nc1ccc(Cl)cc1Cl | > 10000 | – |
| 19 | COc1cc(Nc2c(C#N)cnc3cc(/C=C/c4ccccn4)ccc23)c(Cl)cc1Cl | – | 50 |
| 83 | COc1cc(Nc2c(C#N)cnc3cc(C#Cc4ccncc4)ccc23)c(Cl)cc1Cl | 2700 | – |
| 320 | COc1cc(Nc2c(C#N)cnc3cc(C#Cc4ccccc4)ccc23)c(Cl)cc1Cl | > 10000 | – |
| 97 | C=Cc1ccc2c(Nc3cc(OC)c(Cl)cc3Cl)c(C#N)cnc2c1 | 9300 | – |
| 12000 | CCOC(=O)c1cnc2cc(/C=C/c3ccncc3)ccc2c1Nc1ccc(Cl)cc1Cl | > 10000 | – |
| 3100 | CCOc1cc(Nc2c(C#N)cnc3cc(/C=C/c4ccncc4)ccc23)c(Cl)cc1Cl | > 10000 | – |
| 15 | COc1cc(Nc2c(C#N)cnc3cc(/C=C/c4cccnc4)ccc23)c(Cl)cc1Cl | 230 | – |
| 65 | COc1cc(Nc2c(C#N)cnc3cc(/C=C/c4ccccc4)c(OC)cc23)c(Cl)cc1Cl | 1500 | – |
| 380 | N#Cc1cnc2cc(/C=C/c3ccncc3)ccc2c1Oc1ccc(Cl)cc1Cl | 7200 | – |
| 200 | N#Cc1cnc2cc(C#Cc3cccnc3)ccc2c1Nc1ccc(Cl)cc1Cl | 3900 | – |
